Usually GI50 stands for the concentration that inhibits growth by half. A lower GI50 goes with more potent growth inhibition. The IC50 is the concentration needed to halve the response being measured.

Data on five compounds can be found in patent US9714249B2 (Novartis AG, priority 2013, dated 2017).

Where only a bound is given, the exact number is not on record here.

One test concerns K-562 cells. Kind of test: Cell growth inhibition assay (CellTiter-Glo), K-562. In kind it is cell-based, human. Conditions: K-562, 4 days; for GI50: Homo sapiens, K562, 96 h, half-maximal growth inhibition; for K-562 TGI: total growth inhibition. The protocol: (§1) The human leukemia cell lines MV-4-11, THP-1 and K-562 were employed to characterize the effect of BET inhibitors on cellular proliferation and viability. Cells were obtained from the American Type Culture Collection (ATCC) and cultured at 37° C. in a humidified 5% CO2 incubator in the following media: MV-4-11: DMEM high glucose (Animed #1-26F01-I), 10% FCS (Animed #2-01F26-I), 4 mM L-Glutamine (Animed #5-10K50), 1 mM Sodium Pyruvate (Animed # G03625P), 1× Penicillin-Streptomycin (Animed # F12478P); K-562: Iscove's MEM (Animed #1-28F16-I), 10% FCS (Animed #2-01F26-I), 4 mM L-Glutamine (Animed #5-10K50), 1× Penicillin-Streptomycin (Animed # F12478P); THP-1: RPMI-1640 (Animed #1-41F01-I), 10% FCS (Animed #2-01F26-I), 2 mM L-Glutamine (Animed #5-10K50), 10 mM HEPES (Animed #5-31F100), 1 mM Sodium Pyruvate (Animed # G03625P), 1× Penicillin-Streptomycin (Animed # F12478P). The AML lines MV-4-11 and THP-1 are very sensitive to BET inhibitors and show massive cell death upon BET inhibition (Zuber et al., Nature, 478 (2011), 524-8). Compound-mediated suppression of cell proliferation/viability was assessed by quantification of cellular ATP levels using the CellTiter-Glo (CTG) reagent (Promega). Briefly, cells were seeded in 20 μl fresh medium into 384-well plates, followed by addition of 5 μl medium containing compound dilutions at 5-fold their final intended concentration. Dose-response effects were assessed by 3-fold serial dilutions of the test compound, starting at 10 μM. Following incubation of the cells for 4 days at 37° C. and 5% CO2, the effect of inhibitors on cell viability was quantified following addition of 20 μl CTG and luminescence quantification (integration time: 100 ms) as per vendor manual, using a correspondingly equipped Tecan M200 multi-mode platereader (TECAN, Switzerland). For data analysis, the assay background value determined in wells containing medium, but no cells, was subtracted from all data points. To enable differentiation of cytotoxic from cytostatic compounds, the number of viable cells is assessed relative to that observed at the time of compound addition using a separate cell plate (day 0). The effect of a particular test compound concentration on cell proliferation/viability is expressed as percentage of the background- and day 0-corrected luminescence reading obtained for cells treated with vehicle only (DMSO, 0.1% final concentration), which is set as 100%, whereas that luminescence reading for wells containing medium is set as −100%. Compound concentrations leading to half-maximal (1050) and total growth inhibition (TGI) were determined using standard four parameter curve fitting.
On the technique in general: ATP-based viability assays read luminescence as a measure of living cells.

Another test concerns THP-1 cells. Kind of test: Cell growth inhibition assay (CellTiter-Glo), THP-1. As to conditions: THP-1, 4 days; for GI50: Homo sapiens, 96 h, half-maximal growth inhibition; for THP-1 TGI: total growth inhibition. The format is cell-based, human. As to the method: as §1
The next test concerns MV-4-11 cells. Kind of test: Cell growth inhibition assay (CellTiter-Glo), MV-4-11. The format is cell-based, human. Conditions: MV-4-11, 4 days; for GI50: Homo sapiens, MV4-11, 96 h, half-maximal growth inhibition; for MV-4-11 TGI: total growth inhibition. As to the method:
as §1

The next test deals with BRD3 (His-Brd3(20-477)) (Homo sapiens (Human), UniProt Q15059). Kind of test: TR-FRET in-vitro binding assay for BRD3. As to conditions: acetyl-histone H4 peptide. The protocol:
(§2) All assays were performed in 384 well microtiter plates. Each assay plate contained 8-point serial dilutions for 40 test compounds, plus 16 high- and 16 low controls. Liquid handling and incubation steps were done on an Innovadyne Nanodrop Express equipped with a robotic arm (Thermo CatX, Perkin Elmer/Caliper Twister II) and an incubator (Liconic STX40, Thermo Cytomat 2C450). The assay plates were prepared by addition of 50 nl per well of compound solution in 90% DMSO HummingBird nanodispenser (Zinsser Analytic). The assay was started by stepwise addition of 4.5 μl per well of bromo domain protein (50 mM HEPES, pH 7.5, 0.005% Tween20, 0.1% BSA, 50 mM NaCl, 45 nM His-Brd2(60-472) or 45 nM His-Brd3(20-477) or 45 nM His-Brd4(44-477) all proteins produced in-house) and 4.5 μl per well of peptide solution (50 mM HEPES, pH 7.5, 0.005% Tween20, 0.1% BSA, 50 mM NaCl, 60 nM acetyl-histone H4 (AcK 5, 8, 12, 16) (Biosyntan GmbH)). Reactions were incubated at 30° C. for 35 minutes. Subsequently 4.5 μl per well detection mix (50 mM HEPES, pH 7.5, 0.005% Tween20, 0.1% BSA, 50 mM NaCl, 3 nM Eu-labeled anti-His6 antibody, 21 nM streptavidin-allophycocyanin) were added. After 35 minutes incubation at 30° C., plates were measured in a Perkin Elmer EnVision multilabel reader. Concentrations causing 50% inhibition (1050) values were determined from percent inhibition values at different compound concentrations by non-linear regression analysis.
(§3) Test compounds were dissolved in DMSO (10 mM) and transferred into 1.4 mL flat bottom or V-shaped Matrix tubes carrying a unique 2D matrix. The stock solutions were stored at […] if not used immediately. For the test procedure the vials were defrosted and identified by a scanner whereby a working sheet was generated that guided the subsequent working steps. Compound dilutions were made in 96 well plates. This format enabled the assay of maximally 40 individual test compounds at 8 concentrations (single points) including 4 reference compounds, if desired (known BET inhibitors from the prior art, for this and other assays of the type disclosed herein). The dilution protocol included the production of “pre-dilution plates”, “master plates” and “assay plates”.
(§4) Pre-dilution plates: 96 polypropylene well plates were used as pre-dilution plates. A total of 4 pre-dilution plates were prepared including 10 test compounds each on the plate positions A1-A10, one standard compound at A11 and one DMSO control at A12. All dilution steps were done on a HamiltonSTAR robot. Master plates: 30 μL of individual compound dilutions including standard compound and controls of the 4 “pre-dilution plates” were transferred into a 384 “master plate” including the following concentrations 10000, 3003, 1000, 300, 100, 30, 10 and 3 μM, respectively in 90% of DMSO. Assay plates: Identical “assay plates” were then prepared by pipetting 50 nL each of compound dilutions of the “master plates” into 384-well “assay plates” by means of a HummingBird 384-channel dispenser. These plates were used directly for the assay which was performed in a total volume of 13.55 μL. This led to a final compound concentration of 37, 11, 3.7, 1.1, 0.37, 0.11, 0.037 and 0.011 μM and a final DMSO concentration of 0.37% in the assay. Cell Growth Inhibition Assay
For orientation: In TR-FRET formats the signal depends on donor and acceptor labels being close together.

Test [1] concerns the target CREBBP bromodomain (His-CREBBP (1081-1197)) (Homo sapiens (Human), UniProt Q92793). In words: AlphaScreen in-vitro binding assay for CREBBP. Conditions: acetyl-histone H4 peptide. The protocol: In order to assess bromodomain selectivity, we set up a binding assay using the bromodomain encoded by the CREBBP gene. […] Reactions were incubated at 30° C. for 35 minutes. Subsequently 4.5 μl per well detection mix (50 mM HEPES, pH 7.5, 0.005% Tween20, 0.02% BSA, 150 mM NaCl, 45 μg/ml Ni-chelate acceptor beads, 45 μg/ml streptavidin-donor beads) (Perkin Elmer)) were added. After 60 minutes incubation at room temperature, plates were measured in a Perkin Elmer EnVision multilabel reader. IC50 values were determined from percent inhibition values at different compound concentrations by non-linear regression analysis.
as §3
Pre-dilution plates: 96 polypropylene well plates were used as pre-dilution plates. A total of 4 pre-dilution plates were prepared including 10 test compounds each on the plate positions A1-A10, one standard compound at A11 and one DMSO control at A12. All dilution steps were done on a HamiltonSTAR robot. […] These plates were used directly for the assay which was performed in a total volume of 13.55 μL. […] Cell Growth Inhibition Assay
Background: Bead proximity is the source of the signal in Alpha formats.

A further test deals with BRD4-NUT-fusion (Homo sapiens (Human), UniProt O60885+Q86Y26). Kind of test: Nut-foci formation assay (HCS) in HCC2494 NUT midline carcinoma cells. In kind it is cell-based. Conditions: 24 hours, nuclear BRD4-NUT foci, immunofluorescence. As to the method: Compound-mediated inhibition of BRD4 activity was monitored by quantification of the number and intensity of nuclear BRD4-NUT foci using automated immunofluorescence microscopy. Briefly, 5000 cells in 20 μl fresh medium were seeded into Poly-D-Lysine-precoated 384-well plates and incubated overnight at 37° C. and 5% CO2, followed by addition of 5 μl medium containing compound dilutions at 5-fold their final intended concentration. Dose-response effects were assessed by 3-fold serial dilutions of the test compound, starting at 10 μM. […] Assay plates were imaged using the appropriate filter sets on the Cellomics VTi automated fluorescence microscopy platform (ThermoFisher Scientific) and the population average of the number of NUT-foci per nucleus is quantified using the Cellomics Spot Detection BioApplication image analysis algorithm (ThermoFisher Scientific). The effect of a particular test compound concentration on NUT-foci number and intensity is expressed as percentage of the value obtained for cells treated with vehicle only (DMSO, 0.1% final concentration), which was set as 100.

A further test deals with BRD2 (His-Brd2(60-472)) (Homo sapiens (Human), UniProt P25440). In words: TR-FRET in-vitro binding assay for BRD2. Conditions: acetyl-histone H4 peptide. As to the method:
as §2, §3, §4

Chain of BRD3 (His-Brd3(20-477)) (Q15059 20-477, species assumed): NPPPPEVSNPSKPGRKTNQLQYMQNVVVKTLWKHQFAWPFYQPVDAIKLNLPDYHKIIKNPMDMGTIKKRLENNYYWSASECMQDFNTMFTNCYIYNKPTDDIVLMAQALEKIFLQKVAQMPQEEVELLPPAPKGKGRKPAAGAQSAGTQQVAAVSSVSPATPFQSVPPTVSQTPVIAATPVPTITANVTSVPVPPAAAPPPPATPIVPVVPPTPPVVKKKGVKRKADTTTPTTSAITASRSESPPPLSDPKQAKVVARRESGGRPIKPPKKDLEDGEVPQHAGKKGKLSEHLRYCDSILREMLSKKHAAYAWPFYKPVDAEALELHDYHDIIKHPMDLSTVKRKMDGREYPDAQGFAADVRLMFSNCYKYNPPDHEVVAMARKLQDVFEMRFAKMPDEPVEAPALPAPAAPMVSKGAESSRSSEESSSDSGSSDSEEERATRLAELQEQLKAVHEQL
Chain of CREBBP bromodomain (His-CREBBP (1081-1197)) (Q92793 1081-1197): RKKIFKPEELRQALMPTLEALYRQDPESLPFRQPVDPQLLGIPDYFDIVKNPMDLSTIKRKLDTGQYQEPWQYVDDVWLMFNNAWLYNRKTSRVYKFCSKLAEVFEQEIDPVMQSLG
Chain of BRD2 (His-Brd2(60-472)) (P25440 60-472, species assumed): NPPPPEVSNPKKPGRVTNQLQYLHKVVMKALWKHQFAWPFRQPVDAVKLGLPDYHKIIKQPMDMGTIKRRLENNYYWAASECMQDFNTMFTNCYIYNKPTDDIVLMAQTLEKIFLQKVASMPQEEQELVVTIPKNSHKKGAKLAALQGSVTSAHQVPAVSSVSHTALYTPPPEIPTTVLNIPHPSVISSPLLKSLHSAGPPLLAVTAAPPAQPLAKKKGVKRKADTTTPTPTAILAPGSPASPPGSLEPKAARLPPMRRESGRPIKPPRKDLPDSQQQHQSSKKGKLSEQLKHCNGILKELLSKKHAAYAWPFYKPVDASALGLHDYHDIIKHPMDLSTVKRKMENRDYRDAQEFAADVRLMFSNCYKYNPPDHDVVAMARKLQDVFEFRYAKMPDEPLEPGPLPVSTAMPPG

`Cc1[nH]nc2c1C(=O)N(c1cc(C)c(=O)n(C)c1)[C@@H]2c1ccc(Cl)cc1` [Example 27, (R)-6-(4-chlorophenyl)-5-(1,5-dimethyl-6-oxo-1,6-dihydropyridin-3-yl)-3-methyl-5,6-dihydropyrrolo[3,4-c]pyrazol-4(2H)-one]: in the test with K-562 cells, the GI50 turned out to be 112 nM and the “K-562 TGI” value was over 10000 nM. In the test on THP-1 cells, growth was halved (GI50) at 56.2 nM and the “THP-1 TGI” value stood at 115 nM. For the same compound, in the test with MV-4-11 cells, growth was halved (GI50) at 27.1 nM and the “MV-4-11 TGI” value came out at 49.6 nM. The compound also showed an IC50 at BRD3 (His-Brd3(20-477)) of 27 nM. This compound also had an IC50 in test [1] of 1200 nM.
Regarding `COc1ncccc1-n1nc(C)c2c1C(c1ccc(Cl)cc1)N(c1cc(C)c(=O)n(C)c1)C2=O` (stereo not drawn) [Example 17a, 6-(4-chlorophenyl)-5-(1,5-dimethyl-6-oxo-1,6-dihydropyridin-3-yl)-1-(2-methoxypyridin-3-yl)-3-methyl-5,6-dihydropyrrolo[3,4-c]pyrazol-4(1H)-one], in the test with K-562 cells, the GI50 turned out to be 293 nM and the “K-562 TGI” value is over 10000 nM. In addition, in the test with THP-1 cells, the GI50 was found to be 102 nM and the “THP-1 TGI” value came to 175 nM. In addition, in the test on MV-4-11 cells, the GI50 amounted to 58.1 nM and the “MV-4-11 TGI” value amounted to 87.9 nM. Further, at BRD4-NUT-fusion, the IC50 is 56.1 nM.
Consider `Cc1cc(N2C(=O)c3c(C4CC4)n[nH]c3C2c2ccc(Cl)cc2)cn(C)c1=O` (stereo not drawn) [Example 23, 6-(4-chlorophenyl)-3-cyclopropyl-5-(1,5-dimethyl-6-oxo-1,6-dihydropyridin-3-yl)-5,6-dihydropyrrolo[3,4-c]pyrazol-4(1H)-one], for which the figures for the GI50 in the test on K-562 cells, with THP-1 cells and with MV-4-11 cells were 170 nM, 59.4 nM and 25.6 nM, respectively. Besides, the “K-562 TGI” value in the test with K-562 cells was over 10000 nM. Moreover, the IC50 stood at 52 nM at BRD2 (His-Brd2(60-472)), 49 nM at BRD3 (His-Brd3(20-477)) and 3300 nM in test [1]. In the test with THP-1 cells, the “THP-1 TGI” value is 128.5 nM. Moreover, in the test with MV-4-11 cells, the “MV-4-11 TGI” value was determined as 48 nM.
Regarding `Cc1[nH]nc2c1C(=O)N(c1cc(C)c(=O)n(C)c1)C2c1ccc(Cl)cc1` (stereo not drawn) [Example 9, 6-(4-chlorophenyl)-5-(1,5-dimethyl-6-oxo-1,6-dihydropyridin-3-yl)-3-methyl-5,6-dihydropyrrolo[3,4-c]pyrazol-4(2H)-one], in the test with K-562 cells, the GI50 is 322 nM and the “K-562 TGI” value was over 10000 nM. Also, in the test with THP-1 cells, the GI50 came to 88.5 nM and the “THP-1 TGI” value amounted to 206 nM. Also, in the test on MV-4-11 cells, the GI50 came to 51 nM and the “MV-4-11 TGI” value came out at 72.1 nM. This compound registered an IC50 on BRD3 (His-Brd3(20-477)) of 67 nM. This compound gave an IC50 in test [1] of 3000 nM.
For the compound `CCOc1ncccc1-n1nc(C)c2c1C(c1ccc(Cl)cc1)N(c1cc(C)c(=O)n(C)c1)C2=O` (stereo not drawn) [Example 18a, 6-(4-chlorophenyl)-5-(1,5-dimethyl-6-oxo-1,6-dihydropyridin-3-yl)-1-(2-ethoxypyridin-3-yl)-3-methyl-5,6-dihydropyrrolo[3,4-c]pyrazol-4(1H)-one], in the test on K-562 cells, the GI50 was found to be 574 nM and the “K-562 TGI” value is over 10000 nM. Also, in the test with THP-1 cells, the GI50 was 89.6 nM and the “THP-1 TGI” value was found to be 175 nM. In addition, in the test on MV-4-11 cells, growth was halved (GI50) at 89.3 nM and the “MV-4-11 TGI” value was 101 nM. Also, on BRD4-NUT-fusion, the IC50 worked out at 66.6 nM.
